Assay results as given in paper PMC10709440, “High-throughput ligand profile characterization in novel cell lines expressing seven heterologous insect olfactory receptors for the detection of volatile plant biomarkers” (Scientific Reports, 2023).
Where “and” joins values, the source holds several entries; their conditions need not be identical. Equal values may be shown once. Read-outs that look alike come from different tables or passages of the source.

Experiments:
Drosophila OR49b = target: T1, Drosophila OR49b (Drosophila melanogaster, UniProt Q9V6H2); assay: cell-based; details: for Average response: mean of biological replicates
T1 construct: expressed in transfected cells
T1 sequence (Q9V6H2 1-375): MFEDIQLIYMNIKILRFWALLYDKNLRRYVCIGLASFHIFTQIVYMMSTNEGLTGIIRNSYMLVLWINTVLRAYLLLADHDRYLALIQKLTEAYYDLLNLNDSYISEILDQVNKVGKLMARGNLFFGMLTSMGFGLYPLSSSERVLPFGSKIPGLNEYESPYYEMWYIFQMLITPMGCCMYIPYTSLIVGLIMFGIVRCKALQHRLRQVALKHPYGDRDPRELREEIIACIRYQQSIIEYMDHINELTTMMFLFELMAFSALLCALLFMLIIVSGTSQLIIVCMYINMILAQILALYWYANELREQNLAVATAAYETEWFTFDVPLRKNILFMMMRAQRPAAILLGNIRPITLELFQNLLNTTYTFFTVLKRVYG
T1 sequence (Q9VNB5 1-486 partner): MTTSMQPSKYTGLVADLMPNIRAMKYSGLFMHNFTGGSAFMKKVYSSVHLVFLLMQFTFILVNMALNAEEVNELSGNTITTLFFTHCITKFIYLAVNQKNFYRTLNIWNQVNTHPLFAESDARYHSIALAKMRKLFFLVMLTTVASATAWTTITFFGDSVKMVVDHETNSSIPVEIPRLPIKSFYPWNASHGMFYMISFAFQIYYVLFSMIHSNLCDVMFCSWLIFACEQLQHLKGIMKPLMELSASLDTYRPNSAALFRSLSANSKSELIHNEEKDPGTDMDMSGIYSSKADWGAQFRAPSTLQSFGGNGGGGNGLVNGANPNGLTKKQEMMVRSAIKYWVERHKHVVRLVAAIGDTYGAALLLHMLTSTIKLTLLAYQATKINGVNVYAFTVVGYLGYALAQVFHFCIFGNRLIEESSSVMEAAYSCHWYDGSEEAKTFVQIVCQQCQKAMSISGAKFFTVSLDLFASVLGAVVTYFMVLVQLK
Procedure: (§1) These VUAA1 normalized ∆F values were used to compare the different receptors and ligands.
(§2) The concentration-dependent effect of the reference ligands on their cognate cell lines was examined in more detail. Twelve different ligand concentrations were measured on each cell line in an overall 0.01 μM to 100 μM concentration range with 5 repetitions with three technical replicates each time.
(§3) Twelve thousand to 18,000 cells were plated into each well of a black wall, transparent bottom 384-well microplate (Greiner) 48 h or 72 h before the measurements and were simultaneously treated with 1 μg/mL doxycycline. […] The plate has 24 columns, thus we could record responses in up to eight different cell lines in each plate. On the day of the experiment, the growth medium was replaced with 20 µL assay buffer/well (140 mM NaCl, 5 mM KCl, 2 mM CaCl2, 1 mM MgCl2, 5 mM HEPES-Na, 20 mM glucose, pH 7.3, 340 mOsm). […] Baseline fluorescence (F0) was recorded for 5 s, after which 7 µL VOC buffer (140 mM NaCl, 5 mM KCl, 2 mM CaCl2, 1 mM MgCl2, 5 mM HEPES-Na, 31 mM glucose, 0.1% DMSO, pH 7.3, 340 mOsm) was injected into each well in one row and the fluorescence response was recorded for an additional 30 s, at a rate of one read/sec. VOC solutions (VOC buffer with 4× concentration of the final measured VOC concentration, 9 µL/well was injected) were measured on the same wells in a second round with the same protocol. Each individual concentration of a specific VOC sample was recorded in three wells for the same cell line on the same microplate. The raw data were exported in xls file format, F0 and FMAX values, and the fluorescence intensity changes (∆F) were calculated in Excel (Microsoft) (Supplementary file Data summary.xlsx) using the following equation: ΔF=FMAX-F0/F0 (see also Fig. 1C). On each plate, we recorded the response of each cell line to 50 µM VUAA1. The average of these ∆F values of each cell line were used to calculate the VUAA1-normalized values for the rest of the plate, by dividing VOC response ∆F values by the average VUAA1 response ∆F value of the corresponding OR cell line. Each VOC-OR combination was measured three times as technical replicates. […] The average of these replicates were used as one ∆F and VUAA1-normalized ∆F in the following analysis.
(§4) In the next rows we tested the reference VOCs (or other VOCs known to activate the corresponding cell lines), in order to test if all cell lines are responsive. The remaining rows were used to test VOCs with unknown effect.
(§5) The recorded FMAX, F0, ∆F, VUAA1-normalized ∆F values, as well as the OR name, the name of the tested sample, and the final concentration for each well were copied into supplementary file Data summary.xlsx, that was used to summarize all the plates recorded. Here, the averages of the measurements were calculated for each receptor-VOC-concentration combination.

Drosophila OR71a = target: T2, Drosophila OR71a (Drosophila melanogaster, UniProt Q9VUK5); assay: Calcium ion fluorescence (GCaMP6) assay, OR71a stable HEK293 cell line; type: cell-based; details: for OR71a response (VUAA1-normalized) at 1 μM / OR71a response (VUAA1-normalized) at 10 μM / OR71a response (VUAA1-normalized) at 100 μM / Average response: OR71a cell line; for Average response: VUAA1-normalized response, mean of biological replicates
T2 construct: expressed in transfected cells
T2 sequence (Q9VUK5 1-378): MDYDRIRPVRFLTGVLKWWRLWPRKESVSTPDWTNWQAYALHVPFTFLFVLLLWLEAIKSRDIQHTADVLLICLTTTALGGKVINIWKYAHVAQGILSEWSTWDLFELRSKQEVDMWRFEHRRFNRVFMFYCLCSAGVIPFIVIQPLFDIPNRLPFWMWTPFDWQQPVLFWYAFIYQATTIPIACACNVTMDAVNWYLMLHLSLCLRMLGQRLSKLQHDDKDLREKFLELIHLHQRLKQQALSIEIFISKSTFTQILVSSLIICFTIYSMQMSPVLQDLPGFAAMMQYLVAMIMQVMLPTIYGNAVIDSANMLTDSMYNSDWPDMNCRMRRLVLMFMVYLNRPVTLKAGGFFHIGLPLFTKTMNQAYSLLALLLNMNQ
T2 sequence (Q9VNB5 1-486 partner): T1 sequence (Q9VNB5 1-486 partner)
Procedure: as §1, §2, §3, §4, §5

[1] = ligand concentration 1 (unit not given), 0.05 threshold, values below shown as 0
[2] = ligand concentration 10 (unit not given), 0.05 threshold, values below shown as 0
[3] = ligand concentration 100 (unit not given), 0.05 threshold, values below shown as 0
[4] = OR49b cell line, odorant cc. 1 µM
[5] = OR49b cell line, odorant cc. 10 µM
[6] = OR49b cell line, odorant cc. 100 µM
[7] = concentration 1, normalized fluorescence change, values below 0.05 threshold given as 0
[8] = concentration 10, normalized fluorescence change, values below 0.05 threshold given as 0
[9] = concentration 100, normalized fluorescence change, values below 0.05 threshold given as 0

Compound | OR71a response (VUAA1-normalized) at 1 μM (Drosophila OR71a; VOC concentration 1 μM) | OR71a response (VUAA1-normalized) at 10 μM (Drosophila OR71a; VOC concentration 10 μM) | OR71a response (VUAA1-normalized) at 100 μM (Drosophila OR71a; VOC concentration 100 μM) | Average response (Drosophila OR71a; cc. 1 µM) | Average response (Drosophila OR71a; cc. 10 µM) | Average response (Drosophila OR71a; cc. 100 µM) | DF norm AVERAGE OR71a (Drosophila OR71a; [1]) | DF norm AVERAGE OR71a (Drosophila OR71a; [2]) | DF norm AVERAGE OR71a (Drosophila OR71a; [3]) | Average response (Drosophila OR49b; [4]) | Average response (Drosophila OR49b; [5]) | Average response (Drosophila OR49b; [6]) | OR49b response (VUAA1-normalized response) (Drosophila OR49b; VOC concentration 1 μM) | OR49b response (VUAA1-normalized response) (Drosophila OR49b; VOC concentration 10 μM) | OR49b response (VUAA1-normalized response) (Drosophila OR49b; VOC concentration 100 μM) | OR71a response (VUAA1-normalized response) (Drosophila OR71a; VOC concentration 1 μM) | OR71a response (VUAA1-normalized response) (Drosophila OR71a; VOC concentration 10 μM) | OR71a response (VUAA1-normalized response) (Drosophila OR71a; VOC concentration 100 μM) | DF norm AVERAGE OR71a (Drosophila OR71a; [7]) | DF norm AVERAGE OR71a (Drosophila OR71a; [8]) | other results
C=Cc1ccccc1 [styrene] | 0.00 | 0.00 | 0.00 | 0.027 | 0.0458 | 0.00724 | 0 | 0 | 0 |  |  |  |  |  |  |  |  |  |  |  | EC50 (Drosophila OR49b; AVERAGE EC50, OR49b, printed with 95% confidence interval, matches the average LOG EC50): 21.1 µM; EC50 (Drosophila OR49b; EC50 (fitted parameter), OR49b, fit of each biological replicate): 16.6 µM and 17.3 µM; EC50 (Drosophila OR49b; EC50, AVERAGE, OR49b, arithmetic average of 5 replicate EC50): 24.9 µM; EC50 (Drosophila OR49b; LOG EC50 (fitted parameter), OR49b, fit of each biological replicate, log of EC50, unit inferred): 46.9 µM; EC50 (Drosophila OR49b; OR49b cell line, fitted Hill equation, Hill coefficient constrained to 1, maximal response max 1, read-out: EC50): 21.1 µM; EC50 (Drosophila OR49b; OR49b, average of 5 biological replicates, read-out: LOG EC50, AVERAGE (converted)): 21.1 µM; EC50 (Drosophila OR49b; OR49b, fit of each biological replicate, log of EC50, unit inferred, read-out: LOG EC50 (fitted parameter) (converted)): 34.6 µM and 16.6 µM and 17.3 µM and 8.95 µM; EC50 (Drosophila OR49b; OR49b, fit of each biological replicate, read-out: EC50 (fitted parameter)): 34.6 µM and 46.9 µM and 8.95 µM; EC50 (Drosophila OR49b; OR49b, fit of the averaged curve, read-out: EC50, FITTED AVERAGE CURVE): 24.4 µM
(+)-beta-cedrene |  |  |  | 0.0243 | 0.03 | 0.00 |  |  |  | 0.00 | 0.0336 | 0.00 | 0.00 | 0.00 | 0.00 | 0.00 | 0.00 | 0.00 | 0 | 0 | DF norm AVERAGE OR49b (Drosophila OR49b): 0; DF norm AVERAGE OR71a (Drosophila OR71a; [9]): 0
CCCCCCCCCCC [undecane] | 0.00 | 0.00 | 0.00 | 0.00 | 0.00 | 0.00847 | 0 | 0 | 0 | 0.00 | 0.00 | 0.0367 |  |  |  |  |  |  |  |  | OR49b response (VUAA1-normalized) at 1 μM (Drosophila OR49b; OR49b cell line, VOC concentration 1 μM): 0.00; OR49b response (VUAA1-normalized) at 10 μM (Drosophila OR49b; OR49b cell line, VOC concentration 10 μM): 0.00; OR49b response (VUAA1-normalized) at 100 μM (Drosophila OR49b; OR49b cell line, VOC concentration 100 μM): 0.00; DF norm AVERAGE OR49b (Drosophila OR49b; [1]): 0; DF norm AVERAGE OR49b (Drosophila OR49b; [2]): 0; DF norm AVERAGE OR49b (Drosophila OR49b; [3]): 0
(-)-alpha-cedrene |  |  |  | 0.00 | 0.043 | 0.00 |  |  |  | 0.00 | 0.0843 | 0.00 | 0.00 | 0.0843 | 0.00 | 0.00 | 0.00 | 0.00 | 0 | 0 | DF norm AVERAGE OR71a (Drosophila OR71a; [9]): 0
